We go through two molecules from patent publication US9974304B2, “Use of macrocyclic picolinamides as fungicides” (DOW AGROSCIENCES LLC, priority 2013, dated 2018).

One may read the melting point as the temperature, or range, at which the solid turns liquid.

For the molecule `COc1ccnc(C(=O)N[C@H]2COC[C@H](Oc3ccccc3)[C@@H](CCC(C)C)[C@H](C)OC2=O)c1OC(C)=O` [Compound 47], the melting point fell in the range of 66 to 70 °C. Consider `COc1ccnc(C(=O)N[C@H]2COC[C@H](Oc3ccccc3)[C@@H](Cc3ccccc3)[C@H](C)OC2=O)c1OC(C)=O` [Compound 81], for which the melting point was 75 to 81 °C.
